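All cell lines were grown in 96-well plates and treated with compound for 48 hours. TGI marks complete inhibition of growth.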
Columns and labels:
Experiment in all cases: NCI-60 cell line screen, 48 h
786-0 renal = test system: 786-0 renal
A498 renal = test system: A498 renal
COLO 205 colon = test system: COLO 205 colon
HCT-15 colon = test system: HCT-15 colon
LOX IMVI melanoma = test system: LOX IMVI melanoma
NCI-H460 lung = test system: NCI-H460 lung
OVCAR-5 ovarian = test system: OVCAR-5 ovarian
OVCAR-8 ovarian = test system: OVCAR-8 ovarian
SF-268 CNS = test system: SF-268 CNS
SK-MEL-28 melanoma = test system: SK-MEL-28 melanoma
SK-OV-3 ovarian = test system: SK-OV-3 ovarian
SNB-75 CNS = test system: SNB-75 CNS
SR leukemia = test system: SR leukemia
SW-620 colon = test system: SW-620 colon
UACC-257 melanoma = test system: UACC-257 melanoma
UACC-62 melanoma = test system: UACC-62 melanoma
DU-145 prostate = test system: DU-145 prostate
MDA-MB-231 breast = test system: MDA-MB-231 breast
MDA-MB-435 = test system: MDA-MB-435
NCI/ADR-RES ovarian = test system: NCI/ADR-RES ovarian

CCCCCCCCCCCCn1[nH]c(C)c(C(=S)SCCCCCCCC)c1=O
TGI (786-0 renal): > 100 µM
TGI (A498 renal): > 100 µM
TGI (COLO 205 colon): > 100 µM
TGI (HCT-15 colon): > 100 µM
TGI (LOX IMVI melanoma): > 100 µM
TGI (NCI-H460 lung): > 100 µM
TGI (OVCAR-5 ovarian): > 100 µM
TGI (OVCAR-8 ovarian): > 88.1 µM
TGI (SF-268 CNS): > 100 µM
TGI (SK-MEL-28 melanoma): > 100 µM
TGI (SK-OV-3 ovarian): > 100 µM
TGI (SNB-75 CNS): > 100 µM
TGI (SR leukemia): > 39.9 µM
TGI (SW-620 colon): > 62 µM
TGI (UACC-257 melanoma): > 100 µM
TGI (UACC-62 melanoma): 64.6 µM

Brc1ccc2c(c1)C1C(CO2)C(c2ccccc2)=NN1c1ccccc1 (centres undefined)
TGI (786-0 renal): > 100 µM
TGI (A498 renal): > 100 µM
TGI (COLO 205 colon): > 100 µM
TGI (LOX IMVI melanoma): > 100 µM
TGI (NCI-H460 lung): > 100 µM
TGI (OVCAR-5 ovarian): > 100 µM
TGI (OVCAR-8 ovarian): > 100 µM
TGI (SF-268 CNS): > 100 µM
TGI (SK-MEL-28 melanoma): > 100 µM
TGI (SK-OV-3 ovarian): > 100 µM
TGI (SNB-75 CNS): > 100 µM
TGI (SW-620 colon): > 100 µM
TGI (UACC-257 melanoma): > 100 µM

CC(=O)NC(CCCNC(=O)NCCCl)C(=O)NCc1ccccc1 (centres undefined)
TGI (786-0 renal): > 100 µM
TGI (COLO 205 colon): > 100 µM
TGI (HCT-15 colon): > 100 µM
TGI (NCI-H460 lung): > 100 µM
TGI (OVCAR-8 ovarian): > 100 µM
TGI (SF-268 CNS): > 100 µM
TGI (SK-MEL-28 melanoma): > 100 µM
TGI (SNB-75 CNS): > 100 µM
TGI (SR leukemia): > 100 µM
TGI (SW-620 colon): > 100 µM
TGI (UACC-257 melanoma): > 100 µM
TGI (UACC-62 melanoma): > 100 µM

CCOC(=O)/C(C[C@H]1OC(C)(C)O[C@@H]1[C@H]1COC(C)(C)O1)=N/O
TGI (786-0 renal): > 100 µM
TGI (A498 renal): > 100 µM
TGI (COLO 205 colon): > 100 µM
TGI (DU-145 prostate): > 100 µM
TGI (HCT-15 colon): > 100 µM
TGI (LOX IMVI melanoma): > 100 µM
TGI (MDA-MB-231 breast): > 100 µM
TGI (MDA-MB-435): > 100 µM
TGI (NCI-H460 lung): > 100 µM
TGI (NCI/ADR-RES ovarian): > 100 µM
TGI (OVCAR-5 ovarian): > 100 µM
TGI (OVCAR-8 ovarian): > 100 µM
TGI (SF-268 CNS): > 100 µM
TGI (SK-MEL-28 melanoma): > 100 µM
TGI (SK-OV-3 ovarian): > 100 µM
TGI (SW-620 colon): > 100 µM
TGI (UACC-257 melanoma): > 100 µM
TGI (UACC-62 melanoma): > 100 µM

C/C(CC(=O)NC1=CC=C(NC(=O)C/C(C)=N\Nc2ccccc2)CC1)=N/Nc1ccccc1
TGI (786-0 renal): > 100 µM
TGI (A498 renal): > 100 µM
TGI (COLO 205 colon): > 100 µM
TGI (HCT-15 colon): > 100 µM
TGI (LOX IMVI melanoma): > 100 µM
TGI (NCI-H460 lung): > 100 µM
TGI (OVCAR-5 ovarian): > 100 µM
TGI (OVCAR-8 ovarian): > 100 µM
TGI (SF-268 CNS): > 100 µM
TGI (SK-MEL-28 melanoma): > 100 µM
TGI (SK-OV-3 ovarian): > 100 µM
TGI (SNB-75 CNS): > 100 µM
TGI (SR leukemia): > 100 µM
TGI (UACC-257 melanoma): > 100 µM
TGI (UACC-62 melanoma): > 100 µM

COC(=O)c1ccccc1C1CN=NC12Cc1cc(C)c(C)cc1C2=O (centres undefined)
TGI (786-0 renal): > 100 µM
TGI (A498 renal): > 100 µM
TGI (COLO 205 colon): > 100 µM
TGI (DU-145 prostate): > 100 µM
TGI (HCT-15 colon): > 100 µM
TGI (LOX IMVI melanoma): 92.7 µM
TGI (MDA-MB-231 breast): > 100 µM
TGI (MDA-MB-435): > 100 µM
TGI (NCI-H460 lung): > 100 µM
TGI (NCI/ADR-RES ovarian): > 100 µM
TGI (OVCAR-5 ovarian): > 100 µM
TGI (OVCAR-8 ovarian): > 100 µM
TGI (SF-268 CNS): > 100 µM
TGI (SK-MEL-28 melanoma): > 100 µM
TGI (SK-OV-3 ovarian): > 100 µM
TGI (SNB-75 CNS): > 100 µM
TGI (SW-620 colon): > 100 µM
TGI (UACC-257 melanoma): 44.9 µM
TGI (UACC-62 melanoma): > 100 µM

CCC1(N=[N+]=[N-])C(=O)c2ccccc2N(c2ccccc2)C1=O (centres undefined)
TGI (786-0 renal): > 100 µM
TGI (A498 renal): > 100 µM
TGI (COLO 205 colon): > 100 µM
TGI (HCT-15 colon): > 100 µM
TGI (LOX IMVI melanoma): > 100 µM
TGI (NCI-H460 lung): > 100 µM
TGI (OVCAR-5 ovarian): > 100 µM
TGI (OVCAR-8 ovarian): > 100 µM
TGI (SF-268 CNS): > 100 µM
TGI (SK-MEL-28 melanoma): > 100 µM
TGI (SK-OV-3 ovarian): > 100 µM
TGI (SNB-75 CNS): > 100 µM
TGI (SR leukemia): > 100 µM
TGI (SW-620 colon): > 100 µM
TGI (UACC-257 melanoma): > 100 µM
TGI (UACC-62 melanoma): > 100 µM

From PubChem BioAssay (NCI)
